Tests used:
female mice = assay: In vivo inhibition of fertilization, intravaginal cream in female mice; set-up: species or system mouse; conditions: individual mice 1-5; cream 100 mg AAT/20 ml, 100 μl intravaginal prior to copulation; sacrificed 12 days after copulation
Method: For in vivo testing, a cream was prepared by dissolving 100 mg of recombinant AAT in 5 ml of phosphate-buffered saline (PBS; obtained from Sigma Chemical Co.). This solution was emulsified with 15 ml of K-Y Jelly (Johnson & Johnson) to give a final AAT concentration of 100 mg/20 ml.
The cream (100 μl) was administered intravaginal to female mice using an Eppendorf pipette prior to copulation. Control females were untreated or received a control cream consisting of 100 mg bovine serum albumin in 5 ml of PBS plus 15 ml of K-Y Jelly. Copulation was confirmed in two of five BSA controls and four of five experimental mice. Mice were sacrificed 12 days after copulation and the number of fetuses was noted. Results, shown in Table 1, indicate that alpha-1-antitrypsin is an effective contraceptive agent.

boar acrosin [1] = conditions: cited from earlier work
boar acrosin [2] = assay: SDS-PAGE / Western blot analysis of AAT-acrosin reaction mixture; format: binding
Method: Lanes 1 and 6, proacrosin (^~ 5 ug) autoactivated to acrosin; Lanes 2 and 7, alpha-1-antrypsin (^~ 2 ug); Lanes 3 and 8, alpha-1-antitrypsin (~2 ug)+activated proacrosin (~5 ug) in 0.1M Tris, pH 8.0; Lanes 4 and 9, alpha-1-antitrypsin (^~ 2 ug)+activated proacrosin (^~ 5 ug) in 0.1M Tris, 0.05M CaCl2, pH 8.0; Lane 5, molecular weight markers.
(§1) The nature of the reaction between AAT and acrosin was examined by electrophoresis under reducing and denaturing conditions and by Western blot analysis. AAT (2 μg) and activated boar proacrosin (5 μg) were incubated in a buffer containing 0.1M Tris, pH 8.0. Acrosin activity was inhibited 48% in the BAEE assay. […] Thus, all inhibition is accounted for by the formation of a covalent complex.

boar acrosin [3] = assay: Spectrophotometric acrosin assay with substrate BAEE; format: biochemical
Method: The effects of alpha-1-antitrypsin on purified acrosin were measured spectrophotometrically using the acrosin substrate N-α-benzoyl-L-arginine ethyl ester (BAEE) essentially as described by Polakoski and Zaneveld (Methods in Enzymology 45 (part B): 325, 1976). Boar acrosin was combined with AAT in 0.025M Tris, pH 7.0, containing BAEE. A control sample lacked AAT. The absorbance of the reaction mixture was monitored at 253 nm.
as §1

[4] = test system: sperm and ova of hybrid mouse strain B6D2F1; assay: In vitro fertilization assay with mouse sperm and oocytes; format: cell-based
Method: The ability of AAT to inhibit fertilization in vitro was tested using sperm and ova obtained from the hybrid mouse strain B6D2F1. This strain was chosen because a 75% to 85% in vitro fertilization rate is routine and the female mice respond well to superovulatory drugs, producing an average of 30 normal oocytes per animal.
Oocytes were collected from 3- to 4-week-old female B6D2F1 mice. The animals received 5 international units of pregnant mare's serum gonadotropin to initiate follicular growth. After 48 hours, 5 international units of human chorionic gonadotropin were given to effect ovulation. Twelve hours after the last injection, oviducts were removed and oocytes were collected by puncture of the ampullary region, allowing the release of cumulus enclosed oocytes (cumulus clots) into 0.2 ml Fraser's medium (Fraser and Drury, Biol. Reprod. 13: 513-518, 1975) under paraffin oil. To randomize oocyte distribution, all cumulus clots were collected into one dish of medium and then placed into the fertilization medium. Oocytes were collected, on average, 15 minutes before sperm addition.
Sperm were collected from the cauda epididymus of 9- to 14-week-old male B6D2F1 mice of proven fertility. Each epididymus contained approximately 40 million sperm with 70% to 80% motility. […]
After the one-hour capacitation period, the sperm were counted by hemocytometer and […] sperm cells/ml were added to 0.2 ml Fraser's, medium (free of alpha-1-antitrypsin or containing AAT at the above concentrations) containing cumulus cell-enclosed oocytes. […]
The above experiments were designed to analyze the effective inhibitory concentration of alpha-1-antitrypsin and to detect differences in fertilization rate resulting from the capacitation/acrosome reaction state of the sperm. […] Data are expressed as percent oocytes with two pronuclei and a second polar body. […]

human acrosin = conditions: cited from earlier work
acrosin = conditions: cited from earlier work
fertilization in vitro = conditions: cited from earlier work

## alpha-1-antitrypsin [AAT]
Female mice
  Number of Fetuses: 0
Boar acrosin [1]
  inhibition of boar acrosin in vitro: inhibit
Boar acrosin [2]; AAT 2 μg + activated boar proacrosin 5 μg, 0.1M Tris, pH 8.0, reducing and denaturing 12% SDS-PAGE
  complex formation between inhibitor and enzyme (Western blot): formation of a high molecular weight complex
Boar acrosin [2]; same analysis in the presence of 0.05M CaCl2
  complex formation between inhibitor and enzyme (Western blot): essentially identical results
Boar acrosin [3]; AAT 2 μg + activated boar proacrosin 5 μg, 0.1M Tris, pH 8.0
  Acrosin activity inhibited in the BAEE assay: 48%
Boar acrosin [3]; boar acrosin combined with AAT in 0.025M Tris, pH 7.0, containing BAEE, amount of AAT tested
  inhibition of acrosin in the test system (BAEE hydrolysis, absorbance at 253 nm): complete inhibition
[4]; AAT in both capacitation and fertilization media, all concentrations except 0.01 mM (0.05-1 mM), FIG. 4
  blocking of fertilization: effective in blocking fertilization
[4]; capacitation in AAT-containing medium, fertilization in control medium, FIG. 3
  concentrations of AAT effective in blocking fertilization: greater than 0.2 mM
[4]; sperm capacitated in control medium, fertilization in AAT-containing medium, all concentrations tested (0.01-1 mM), control fertilization rate 77%, FIG. 2
  decrease of fertilization rate (percent oocytes with two pronuclei and a second polar body): about 50%
Human acrosin
  inhibition of human acrosin in vitro: inhibit

## soybean trypsin inhibitor
acrosin
  effect on acrosin activity: block acrosin activity
Fertilization in vitro
  effect on fertilization in vitro: prevent fertilization in vitro

— patent US5545615A, “A method of inhibiting fertilization by alpha-1-antitrypsin or antithrombin III” (ZymoGenetics, Inc., priority 1994, dated 1996)
